From US8338472B2, “Hexahydrocyclopentyl[F]indazole carboxamides and derivatives thereof as selective glucocorticoid receptor modulators” (Merck Sharp & Dohme Corp., priority 2008, dated 2012) come the findings set out here.

Like-named read-outs stand apart in the source and are kept apart here.

The target of one assay is T1, Glucocorticoid Receptor (Homo sapiens, UniProt P04150).
T1 construct: These cells express large amount of the GR and are very responsive to GC treatment; endogenous in cells; host or cells: A549 cells transiently transfected with the MMTV-LUC reporter
T1 sequence (P04150 1-777): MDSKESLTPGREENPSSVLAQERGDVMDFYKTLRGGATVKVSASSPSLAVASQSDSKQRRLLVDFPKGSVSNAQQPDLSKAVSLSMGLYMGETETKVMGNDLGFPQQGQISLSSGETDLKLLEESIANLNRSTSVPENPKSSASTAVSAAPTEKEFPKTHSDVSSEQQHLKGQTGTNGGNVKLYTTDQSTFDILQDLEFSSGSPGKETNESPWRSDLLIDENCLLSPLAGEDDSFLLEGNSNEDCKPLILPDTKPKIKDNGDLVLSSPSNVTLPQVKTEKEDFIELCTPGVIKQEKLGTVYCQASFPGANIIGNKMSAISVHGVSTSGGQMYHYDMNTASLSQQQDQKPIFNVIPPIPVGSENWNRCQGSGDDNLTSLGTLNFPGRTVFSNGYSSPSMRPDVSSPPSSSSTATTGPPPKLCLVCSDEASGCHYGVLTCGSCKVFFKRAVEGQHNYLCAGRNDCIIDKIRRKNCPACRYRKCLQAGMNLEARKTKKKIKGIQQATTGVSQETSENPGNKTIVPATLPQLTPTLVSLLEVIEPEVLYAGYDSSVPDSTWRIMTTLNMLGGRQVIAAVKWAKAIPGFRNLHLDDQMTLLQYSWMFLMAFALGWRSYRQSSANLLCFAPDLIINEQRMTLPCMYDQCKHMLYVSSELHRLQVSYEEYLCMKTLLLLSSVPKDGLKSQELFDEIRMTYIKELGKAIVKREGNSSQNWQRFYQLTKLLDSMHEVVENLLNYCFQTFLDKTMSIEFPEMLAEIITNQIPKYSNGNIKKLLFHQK
Kind of assay: Trans-Activation Modulation of Glucocorticoid Receptor (GRAMMER), MMTV-LUC reporter gene in A549 cells. The class given is cell-based. As to conditions: Table 1; for Emax: A549, A549 cells, Emax relative to 300 nM dexamethasone, read-out: Transactivation A549 Cells GRAMMER Emax; for EC50: inflection point, A549 cells, read-out: Transactivation A549 Cells GRAMMER IP. Put shortly:
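Luciferase from a transiently transfected MMTV-LUC reporter was measured after 24 h compound exposure (≤1% DMSO) in A549 or MDA-MB-453 cells. For antagonism, the decrease of 10 nM dexamethasone-induced signal was calculated. For agonism, Emax was referenced to 300 nM dexamethasone.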
For orientation: In a reporter assay the amount or activity of a reporter protein is the signal.

For another assay, the target named is T2, human GR (Homo sapiens, UniProt P04150).
T2 construct: U937 cells contain an endogenous glucocorticoid receptor (GR); endogenous in cells; host or cells: U937 cells stably transfected with the TNF-alpha promoter/beta-lactamase reporter
T2 sequence (P04150 1-777): T1 sequence (P04150 1-777)
The assay can be described thus: Transrepression Assay (GITAR), TNFα-β-lactamase reporter gene in U937 cells. As to conditions: for GITAR Greater than by GRAMMER % SEP: GITAR Emax minus GRAMMER Emax; for EC50: inflection point, U937 cells, read-out: Transrepression U937 Cells GITAR IP. The assay is classed as cell-based. Put shortly:
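Repression of PMA (5 ng/ml final)/LPS (100 ng/ml final)-induced TNF-α promoter activity, read as β-lactamase cleavage of CCF2-AM, in stably transfected U937 cells expressing native GR. Compound added 30-45 min before stimulation, overnight (~18 hr) 37° C; normalized to 100 nM dexamethasone (100%).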

The target of assay [1] is T3, glucocorticoid receptor (GR) (Homo sapiens, UniProt P04150).
T3 sequence (P04150 1-777): T1 sequence (P04150 1-777)
Kind of assay: Ligand binding assay (GR BIND), 3H-dexamethasone displacement in MDA-MB-453 cell lysate. As to conditions: GR BIND Ki, Table 1.
Protocol: Binding Buffer: TEGM (10 mM Tris-HCl, 1 mM EDTA, 10% glycerol, 1 mM beta-mecaptoethanol, 10 mM Sodium Molybdate, pH 7.2)
50% HAP Slurry: Calbiochem Hydroxylapatite, Fast Flow, in 10 mM Tris, pH 8.0 and 1 mM EDTA.
Wash Buffer: 40 mM Tris, pH7.5, 100 mM KCl, 1 mM EDTA and 1 mM EGTA.
Dexmethasone-methyl-^3H, (DEX*); (Amersham cat# TRK645)
Dexamethasone(DEX) (Sigma, cat# D1756):
The cell pellet is washed twice with TEGM (10 mM Tris-HCl, 1 mM EDTA, 10% glycerol, 1 mM beta-mercaptoethanol, 10 mM Sodium Molybdate, pH 7.2). After the final wash, the cells are resuspended in TEGM at a concentration of 10^7 cells/mL. The cell suspension is snap frozen in liquid nitrogen or ethanol/dry ice bath and transferred to −80° C. freezer on dry ice. Before setting up the binding assay, the frozen samples are left on ice-water to just thaw (˜1 hr). Then the samples are centrifuged at 12,500 g to 20,000 g for 30 min at 4° C. The supernatant is used to set-up assay right away. If using 50 μL of supernatant, the test compound can be prepared in 50 μL of the TEGM buffer.
Procedure for Multiple Compound Screening
1×TEGM buffer is prepared, and the isotope-containing assay mixture is prepared in the following order: EtOH (2% final concentration in reaction), ^3H-DEX (Amersham Biosciences) and 1×TEGM. [e.g. For 100 samples, 200 μL (100×2) of EtOH+4.25 μL of 1:10 ^3H-Dex stock+2300 μL (100×23) 1×TEGM]. The compound is serially diluted, e.g., if starting final conc. is 1 μM, and the compound is in 25 μL of solution, for duplicate samples, 75 μL of 4×1 μM solution is made and 3 μL of 100 μM is added to 72 μL of buffer, and 1:5 serial dilution.
25 μL of ^3H-DEX (6 nM) trace and 25 μL compound solution are first mixed together, followed by addition of 50 μL receptor solution. The reaction is gently mixed, spun briefly at about 200 rpm and incubated at 4° C. overnight. 100 μL of 50% HAP slurry is prepared and added to the incubated reaction which is then vortexed and incubated on ice for 5 to 10 minutes. The reaction mixture is vortexed twice more to resuspend HAP while incubating reaction. The samples in 96-well format are then washed in wash buffer using The FilterMate™ Universal Harvester plate washer (Packard). The washing process transfers HAP pellet containing ligand-bound expressed receptor to Unifilter-96 GF/B filter plate (Packard). The HAP pellet on the filter plate is incubated with 50 μL of MICROSCINT (Packard) scintillint for 30 minutes before being counted on the TopCount microscintillation counter (Packard). IC50s are calculated using DEX as a reference.

The mark [2] stands for this setting: U-937, U937 cells, activity repressed by 100 nM dexamethasone = 100%, Table 1, read-out: Transrepression U937 Cells GITAR Emax.
[3] abbreviates: U-937, text statement, 100 nM dexamethasone = 100%, read-out: maximal activity in the transrepression assay (GITAR).

`C[C@]12Cc3cnn(-c4ccc(F)cc4)c3C=C1CC[C@@H]2C(=O)Nc1ccccc1S(N)(=O)=O` [Compound 23, (4αR,5S)-N-[2-(aminosulfonyl)phenyl]-1-(4-fluorophenyl)-4α-methyl-1,4,4α,5,6,7-hexahydrocyclopenta[f]indazole-5-carboxamide]: the Emax on Glucocorticoid Receptor is 3.8%; at human GR (setting [2]) it was 18%; at human GR (setting [3]), greater than 5%. For the same molecule, the results for the EC50 at Glucocorticoid Receptor and at human GR (Table 1) were 45.4 nM and 1700 nM, respectively. Besides, on human GR (Table 1), the “GITAR Greater than by GRAMMER % SEP” value came to 14.2%. The affinity in assay [1], expressed as Ki, was 19.4 nM.

For the molecule `CCNC(=O)CN(CCc1ccccc1)C(=O)[C@H]1CCC2=Cc3c(cnn3-c3ccc(F)cc3)C[C@@]21C` [Compound 24, (4αR,5S)-N-[2-(ethylamino)-2-oxoethyl]-1-(4-fluorophenyl)-4α-methyl-N-(2-phenylethyl)-1,4,4α,5,6,7-hexahydrocyclopenta[f]indazole-5-carboxanide], the figures for the Emax at Glucocorticoid Receptor, on human GR (setting [2]) and at human GR (setting [3]) were 9.2%, 14.5% and greater than 5%, respectively. Further, the figures for the EC50 at Glucocorticoid Receptor and on human GR (Table 1) were 615 nM and 405 nM, respectively. Further, the “GITAR Greater than by GRAMMER % SEP” value at human GR (Table 1) was determined as 5.3%. The affinity in assay [1], expressed as Ki, was 4.7 nM.

Turning to `C[C@]12Cc3cnn(-c4ccc(F)cc4)c3C=C1CC[C@@H]2C(=O)N(CCO)Cc1ccccc1F` [Compound 25, (4α,5S)-N-(2-fluorobenzyl)-1-(4-fluorophenyl)-N-(2-hydroxyethyl)-4α-methyl-1,4,4α,5,6,7-hexahydrocyclopenta[f]indazole-5-carboxamide], the Emax was 9.3% on Glucocorticoid Receptor, 48% at human GR (setting [2]) and greater than 5% on human GR (setting [3]). The EC50 at Glucocorticoid Receptor was 1440 nM; at human GR (Table 1), 2740 nM. For the same molecule, the “GITAR Greater than by GRAMMER % SEP” value at human GR (Table 1) is given as 38.7%. Further, the affinity in assay [1] corresponds to a Ki of 12.5 nM.

As for `CCCCN(CCO)C(=O)[C@H]1CCC2=Cc3c(cnn3-c3ccc(F)cc3)C[C@@]21C` [Compound 26, (4αR,5S)-N-butyl-1-(4-fluorophenyl)-N-(2-hydroxyethyl)-4α-methyl-1,4,4α,5,6,7-hexahydrocyclopenta[f]indazole-5-carboxamide], the Emax was 39.3% at Glucocorticoid Receptor, 83.4% on human GR (setting [2]) and greater than 5% on human GR (setting [3]). For the same molecule, the results for the EC50 at Glucocorticoid Receptor and at human GR (Table 1) were 812 nM and 809 nM, respectively. For the same molecule, the “GITAR Greater than by GRAMMER % SEP” value on human GR (Table 1) worked out at 44.1%. Moreover, affinity in assay [1] was put at a Ki of 16.4 nM.

In the case of `Cc1ccc(CN(CCO)C(=O)[C@H]2CCC3=Cc4c(cnn4-c4ccc(F)cc4)C[C@@]32C)cc1F` [Compound 27, (4αR,5S)-N-(3-fluoro-4-methylbenzyl)-1-(4-fluorophenyl)-N-(2-hydroxyethyl)-4α-methyl-1,4,4α,5,6,7-hexahydrocyclopenta[f]indazole-5-carboxamide], the Emax on Glucocorticoid Receptor is 10.2%; on human GR (setting [2]), 55.8%; at human GR (setting [3]), greater than 5%. Further, the EC50 on Glucocorticoid Receptor came to 2160 nM; on human GR (Table 1) it was 1620 nM. At human GR (Table 1), the “GITAR Greater than by GRAMMER % SEP” value worked out at 45.6%. The molecule also had a Ki in assay [1] of 13.9 nM.

For the molecule `C[C@]12Cc3cnn(-c4ccc(F)cc4)c3C=C1CC[C@@H]2C(=O)N(CCO)Cc1cc(F)c(F)c(F)c1` [Compound 28, (4αR,5S)-1-(4-fluorophenyl)-N-(2-hydroxyethyl)-4α-methyl-N-(3,4,5-trifluorobenzyl)-1,4,4α,5,6,7-hexahydrocyclopenta[f] indazole-5-carboxamide], the Emax was 10.6% at Glucocorticoid Receptor, 56% at human GR (setting [2]) and greater than 5% at human GR (setting [3]). Besides, the EC50 at Glucocorticoid Receptor is 1220 nM; at human GR (Table 1), 1290 nM. Further, the “GITAR Greater than by GRAMMER % SEP” value at human GR (Table 1) came out at 45.4%. Moreover, the inhibition constant Ki in assay [1] stood at 8.9 nM.

For `C[C@]12Cc3cnn(-c4ccc(F)cc4)c3C=C1CC[C@@H]2C(=O)N(CCO)CC(=O)c1coc2ccccc12` [Compound 29, (4αR,5S)-N-[2-(1-benzofuran-3-yl)-2-oxoethyl]-1-(4-fluorophenyl)-N-(2-hydroxyethyl)-4α-methyl-1,4,4α,5,6,7-hexahydrocyclopenta[f]indazole-5-carboxamide], the results for the Emax on Glucocorticoid Receptor, at human GR (setting [2]) and at human GR (setting [3]) were 2.7%, 32.5% and greater than 5%, respectively. The results for the EC50 on Glucocorticoid Receptor and at human GR (Table 1) were 3290 nM and 1840 nM, respectively. Also, the “GITAR Greater than by GRAMMER % SEP” value at human GR (Table 1) was determined as 29.8%. In assay [1], this molecule returned a Ki of 39.1 nM.

For the molecule `C[C@]12Cc3cnn(-c4ccc(F)cc4)c3C=C1CC[C@@H]2C(=O)N(CCO)Cc1ccccc1CS(=O)(=O)c1ccccc1` [Compound 30, (4αR,5S)-1-(4-fluorophenyl)-N-(2-hydroxyethyl)-4α-methyl-N-{2-[(phenylsulfonyl)methyl]benzyl}-1,4,4α,5,6,7-hexahydrocyclopenta[f] carboxamide], the results for the Emax at Glucocorticoid Receptor, at human GR (setting [2]) and on human GR (setting [3]) were 4.3%, 35.5% and greater than 5%, respectively. The EC50 on Glucocorticoid Receptor is 1110 nM; on human GR (Table 1) it was 1080 nM. The “GITAR Greater than by GRAMMER % SEP” value on human GR (Table 1) is 31.2%. Also, in assay [1], the Ki was found to be 12.2 nM.

For the molecule `C[C@]12Cc3cnn(-c4ccc(F)cc4)c3C=C1CC[C@@H]2C(=O)N(CCO)Cc1csc2ccc(Cl)cc12` [Compound 31, (4αR,5S)-N-[(5-chloro-1-benzothien-3-yl)methyl]-1-(4-fluorophenyl)-N-(2-hydroxyethyl)-4α-methyl-1,4,4α,5,6,7-hexahydrocyclopenta[f]indazole-5-carboxamide], the Emax on Glucocorticoid Receptor is 2.6%; at human GR (setting [2]), 15.5%; at human GR (setting [3]), greater than 5%. For the same molecule, the EC50 at Glucocorticoid Receptor worked out at 359 nM; at human GR (Table 1), 1230 nM. Further, the “GITAR Greater than by GRAMMER % SEP” value on human GR (Table 1) came to 12.9%. This molecule also yielded a Ki in assay [1] of 7.9 nM.

On to `C[C@]12Cc3cnn(-c4ccc(F)cc4)c3C=C1CC[C@@H]2C(=O)N(CCO)Cc1cc(F)cc(F)c1` [Compound 32, (4αR,5S)-N-(3,5-difluorobenzyl)-1-(4-fluorophenyl)-N-(2-hydroxyethyl)-4α-methyl-1,4,4α,5,6,7-hexahydrocyclopenta[f]indazole-5-carboxamide], for which the Emax is 17.1% on Glucocorticoid Receptor, 64.3% on human GR (setting [2]) and greater than 5% at human GR (setting [3]). The EC50 is 872 nM at Glucocorticoid Receptor and 1030 nM at human GR (Table 1). Further, the “GITAR Greater than by GRAMMER % SEP” value at human GR (Table 1) turned out to be 47.1%. Also, the Ki in assay [1] was determined as 11.1 nM.

Turning to `C[C@]12Cc3cnn(-c4ccc(F)cc4)c3C=C1CC[C@@H]2C(=O)N(CCO)Cc1cccc(F)c1` [Compound 33, (4αR,5S)-N-(3-fluorobenzyl)-1-(4-fluorophenyl)-N-(2-hydroxyethyl)-4α-methyl-1,4,4α,5,6,7-hexahydrocyclopenta[f]indazole-5-carboxamide], the Emax at Glucocorticoid Receptor was 12.2%; at human GR (setting [2]), 56.3%; on human GR (setting [3]), greater than 5%. Further, the results for the EC50 on Glucocorticoid Receptor and on human GR (Table 1) were 901 nM and 1520 nM, respectively. Moreover, at human GR (Table 1), the “GITAR Greater than by GRAMMER % SEP” value amounted to 44.1%. Affinity in assay [1] was put at a Ki of 7.7 nM.

As to `COc1cc(CN(CCO)C(=O)[C@H]2CCC3=Cc4c(cnn4-c4ccc(F)cc4)C[C@@]32C)cc(OC)c1` [Compound 34, (4αR,5S)-N-(3,5-dimethoxybenzyl)-1-(4-fluorophenyl)-N-(2-hydroxyethyl)-4α-methyl-1,4,4α,5,6,7-hexahydrocyclopenta[f]indazole-5-carboxamide], the Emax is 22.2% on Glucocorticoid Receptor, 66.3% on human GR (setting [2]) and greater than 5% at human GR (setting [3]). For the same molecule, the EC50 on Glucocorticoid Receptor was 1510 nM; on human GR (Table 1), 644 nM. In addition, the “GITAR Greater than by GRAMMER % SEP” value on human GR (Table 1) is recorded as 44.1%. Also, the Ki in assay [1] came out at 12 nM.

By Ki is commonly meant the dissociation constant of the complex between target and ligand, obtained from inhibition or displacement. Low values mean tighter binding, high ones weaker binding.
